Legend:
Assay in all cases: Test D pre-/postemergence plant response
Format in all cases: in vivo
Settings in all cases: Postemergence
[1] = tested on: Russian thistle (Salsola kali)
Summary of the method: (§1)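 Scores (0 no effect, 100 complete control) reflect visual assessment against untreated plants after 14 to 21 days. Treatments were pre- and postemergence sprays in solvent with surfactant.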

[2] = tested on: Surinam grass (Brachiaria decumbens)
Summary of the method: as §1

[3] = tested on: bermudagrass (Cynodon dactylon)
Summary of the method: as §1

[4] = tested on: black mustard (Brassica nigra)
Summary of the method: as §1

[5] = tested on: bluegrass (annual bluegrass, Poa annua)
Summary of the method: as §1

[6] = tested on: dayflower (Virginia (VA) dayflower, Commelina virginica)
Summary of the method: as §1

[7] = tested on: goosegrass (Eleusine indica)
Summary of the method: as §1

[8] = tested on: green foxtail (Setaria viridis)
Summary of the method: as §1

[9] = tested on: guineagrass (Panicum maximum)
Summary of the method: as §1

[10] = tested on: itchgrass (Rottboellia cochinchinensis)
Summary of the method: as §1

kochia (Kochia scoparia) = tested on: kochia (Kochia scoparia)
Summary of the method: as §1

[11] = tested on: morningglory (pitted morningglory, Ipomoea lacunosa)
Summary of the method: as §1

[12] = tested on: nutsedge (purple nutsedge, Cyperus rotundus)
Summary of the method: as §1

[13] = tested on: prickly sida (Sida spinosa)
Summary of the method: as §1

[14] = tested on: purslane (common purslane, Portulaca oleracea)
Summary of the method: as §1

[15] = tested on: signalgrass (broadleaf signalgrass, Brachiaria platyphylla)
Summary of the method: as §1

[16] = tested on: sowthistle (common sowthistle, Sonchus oleraceous)
Summary of the method: as §1

[17] = tested on: spanishneedles (Bidens bipinnata)
Summary of the method: as §1

[18] = 62 g ai/ha, scale 0 to 100 (0 no effect, 100 complete control)
[19] = 125 g ai/ha, scale 0 to 100 (0 no effect, 100 complete control)
[20] = 250 g ai/ha, scale 0 to 100 (0 no effect, 100 complete control)

## CCCCn1c(-c2cc(F)cc(F)c2)ncc(C(=O)C2=C(O)C3CCC(C3)C2=O)c1=O (stereo not drawn) [Compound 245]
[1]; 31 g ai/ha, scale 0 to 100
  Plant response rating, Russian Thistle: 25
[1]; [18]
  Plant response rating, Russian Thistle: 60
[1]; [19]
  Plant response rating, Russian Thistle: 60
[1]; [20]
  Plant response rating, Russian Thistle: 70
[2]; 31 g ai/ha, scale 0 to 100
  Plant response rating, Surinam Grass: 75
[2]; [18]
  Plant response rating, Surinam Grass: 75
[2]; [19]
  Plant response rating, Surinam Grass: 75
[2]; [20]
  Plant response rating, Surinam Grass: 75
[3]; 31 g ai/ha, scale 0 to 100
  Plant response rating, Bermudagrass: 80
[3]; [18]
  Plant response rating, Bermudagrass: 80
[3]; [19]
  Plant response rating, Bermudagrass: 80
[3]; [20]
  Plant response rating, Bermudagrass: 80
[4]; 31 g ai/ha, scale 0 to 100
  Plant response rating, Black Mustard: 75
[4]; [18]
  Plant response rating, Black Mustard: 95
[4]; [19]
  Plant response rating, Black Mustard: 98
[4]; [20]
  Plant response rating, Black Mustard: 98
[5]; 31 g ai/ha, scale 0 to 100
  Plant response rating, Bluegrass: 5
[5]; [18]
  Plant response rating, Bluegrass: 20
[5]; [19]
  Plant response rating, Bluegrass: 35
[5]; [20]
  Plant response rating, Bluegrass: 35
[6]; 31 g ai/ha, scale 0 to 100
  Plant response rating, Dayflower, VA: 20
[6]; [18]
  Plant response rating, Dayflower, VA: 35
[6]; [19]
  Plant response rating, Dayflower, VA: 65
[6]; [20]
  Plant response rating, Dayflower, VA: 75
[7]; 31 g ai/ha, scale 0 to 100
  Plant response rating, Goosegrass: 70
[7]; [18]
  Plant response rating, Goosegrass: 70
[7]; [19]
  Plant response rating, Goosegrass: 70
[7]; [20]
  Plant response rating, Goosegrass: 75
[8]; 31 g ai/ha, scale 0 to 100
  Plant response rating, Foxtail, Green: 85
[8]; [18]
  Plant response rating, Foxtail, Green: 90
[8]; [19]
  Plant response rating, Foxtail, Green: 95
[8]; [20]
  Plant response rating, Foxtail, Green: 95
[9]; 31 g ai/ha, scale 0 to 100
  Plant response rating, Guineagrass: 75
[9]; [18]
  Plant response rating, Guineagrass: 75
[9]; [19]
  Plant response rating, Guineagrass: 75
[9]; [20]
  Plant response rating, Guineagrass: 85
[10]; 31 g ai/ha, scale 0 to 100
  Plant response rating, Itchgrass: 70
[10]; [18]
  Plant response rating, Itchgrass: 70
[10]; [19]
  Plant response rating, Itchgrass: 75
[10]; [20]
  Plant response rating, Itchgrass: 75
Kochia (Kochia scoparia); 31 g ai/ha, scale 0 to 100
  Plant response rating, Kochia: 50
Kochia (Kochia scoparia); [18]
  Plant response rating, Kochia: 65
Kochia (Kochia scoparia); [19]
  Plant response rating, Kochia: 70
Kochia (Kochia scoparia); [20]
  Plant response rating, Kochia: 75
[11]; 31 g ai/ha, scale 0 to 100
  Plant response rating, Morningglory: 70
[11]; [18]
  Plant response rating, Morningglory: 75
[11]; [19]
  Plant response rating, Morningglory: 80
[11]; [20]
  Plant response rating, Morningglory: 80
[12]; 31 g ai/ha, scale 0 to 100
  Plant response rating, Nutsedge, Purple: 5
[12]; [18]
  Plant response rating, Nutsedge, Purple: 5
[12]; [19]
  Plant response rating, Nutsedge, Purple: 5
[12]; [20]
  Plant response rating, Nutsedge, Purple: 20
[13]; 31 g ai/ha, scale 0 to 100
  Plant response rating, Prickly Sida: 30
[13]; [18]
  Plant response rating, Prickly Sida: 50
[13]; [19]
  Plant response rating, Prickly Sida: 50
[13]; [20]
  Plant response rating, Prickly Sida: 70
[14]; 31 g ai/ha, scale 0 to 100
  Plant response rating, Purslane: 0
[14]; [18]
  Plant response rating, Purslane: 5
[14]; [19]
  Plant response rating, Purslane: 30
[14]; [20]
  Plant response rating, Purslane: 30
[15]; 31 g ai/ha, scale 0 to 100
  Plant response rating, Signalgrass: 10
[15]; [18]
  Plant response rating, Signalgrass: 40
[15]; [19]
  Plant response rating, Signalgrass: 50
[15]; [20]
  Plant response rating, Signalgrass: 75
[16]; 31 g ai/ha, scale 0 to 100
  Plant response rating, Sowthistle: 95
[16]; [18]
  Plant response rating, Sowthistle: 95
[16]; [19]
  Plant response rating, Sowthistle: 95
[16]; [20]
  Plant response rating, Sowthistle: 95
[17]; 31 g ai/ha, scale 0 to 100
  Plant response rating, Spanishneedles: 65
[17]; [18]
  Plant response rating, Spanishneedles: 70
[17]; [19]
  Plant response rating, Spanishneedles: 70
[17]; [20]
  Plant response rating, Spanishneedles: 75

Source: patent US8952024B2, “Herbicidal pyrimidone derivatives” (E I du Pont de Nemours and Company, priority 2009, dated 2015)
